Reference: ChEMBL document CHEMBL3046083, “Synthesis, characterization and antimicrobial evaluation of novel derivatives of isoniazid” (2012)
In brackets after ≈: the same amount, converted by molar mass.

Tests used:
Type in all cases: functional
Pseudomonas aeruginosa [1] = assay: Antimicrobial activity against Pseudomonas aeruginosa ATCC […] after 24 hr by broth dilution method
Candida albicans [2] = assay: Antimicrobial activity against Candida albicans ATCC 10231 at 100 ug/ml after 24 to 48 hr by agar diffusion method; details: read-out: DIZ
Pseudomonas aeruginosa [3] = assay: Antimicrobial activity against Pseudomonas aeruginosa ATCC […] at 100 ug/ml after 24 to 48 hr by agar diffusion method; details: read-out: DIZ
Escherichia coli [4] = assay: Antimicrobial activity against Escherichia coli ATCC 25922 at 100 ug/ml after 24 to 48 hr by agar diffusion method; details: read-out: DIZ
Bacillus subtilis [5] = assay: Antimicrobial activity against Bacillus subtilis ATCC […] at 100 ug/ml after 24 to 48 hr by agar diffusion method; details: read-out: DIZ
Escherichia coli [6] = assay: Antimicrobial activity against Escherichia coli ATCC 25922 after 24 hr by broth dilution method; details: ATCC 25922, 24 h
Staphylococcus aureus [7] = assay: Antimicrobial activity against Staphylococcus aureus ATCC 29213 at 100 ug/ml after 24 to 48 hr by agar diffusion method; details: read-out: DIZ
Nakaseomyces glabratus [8] = assay: Antimicrobial activity against Candida glabrata ATCC 10233 at 100 ug/ml after 24 to 48 hr by agar diffusion method; details: read-out: DIZ
Staphylococcus aureus [9] = assay: Antimicrobial activity against Staphylococcus aureus ATCC 29213 after 24 hr by broth dilution method; details: ATCC 29213, 24 h
Candida albicans [10] = assay: Antimicrobial activity against Candida albicans ATCC 10231 by broth dilution method
Nakaseomyces glabratus [11] = assay: Antimicrobial activity against Candida glabrata ATCC 10233 by broth dilution method
Bacillus subtilis [12] = assay: Antimicrobial activity against Bacillus subtilis ATCC […] after 24 hr by broth dilution method

MIC (Pseudomonas aeruginosa [1]) [µg/mL]	MIC50 (Pseudomonas aeruginosa [1]) [µg/mL]	MIC (Escherichia coli [6]) [µg/mL]	MIC50 (Escherichia coli [6]) [µg/mL]	MIC (Staphylococcus aureus [9]) [µg/mL]	MIC50 (Staphylococcus aureus [9]) [µg/mL]	MIC (Candida albicans [10]) [µg/mL]	MIC50 (Candida albicans [10]) [µg/mL]	MIC (Nakaseomyces glabratus [11]) [µg/mL]	MIC50 (Nakaseomyces glabratus [11]) [µg/mL]	MIC (Bacillus subtilis [12]) [µg/mL]	MIC50 (Bacillus subtilis [12]) [µg/mL]	SMILES	zone of inhibition at 100 µg/mL (Candida albicans [2]) [mm]	zone of inhibition at 100 µg/mL (Pseudomonas aeruginosa [3]) [mm]	zone of inhibition at 100 µg/mL (Escherichia coli [4]) [mm]	zone of inhibition at 100 µg/mL (Bacillus subtilis [5]) [mm]	zone of inhibition at 100 µg/mL (Staphylococcus aureus [7]) [mm]	zone of inhibition at 100 µg/mL (Nakaseomyces glabratus [8]) [mm]	MFC (Candida albicans [10]) [µg/mL]	MFC (Nakaseomyces glabratus [11]) [µg/mL]
12.5 (≈ 27.7 µM)	6.4 (≈ 14.2 µM)	6.25 (≈ 13.9 µM)	3.2 (≈ 7.1 µM)	6.25 (≈ 13.9 µM)	3.2 (≈ 7.1 µM)	12.5 (≈ 27.7 µM)	6.4 (≈ 14.2 µM)	12.5 (≈ 27.7 µM)	12.8 (≈ 28.4 µM)	12.5 (≈ 27.7 µM)	6.4 (≈ 14.2 µM)	CCOc1c(/C=N\NC(=O)c2ccncc2)cccc1CN(c1ccccc1)c1ccccc1	21	22	32	26	31	22	25 (≈ 55.5 µM)	50 (≈ 111 µM)
12.5 (≈ 30.4 µM)	6.4 (≈ 15.6 µM)	12.5 (≈ 30.4 µM)	6.4 (≈ 15.6 µM)	12.5 (≈ 30.4 µM)	6.4 (≈ 15.6 µM)	25 (≈ 60.9 µM)	12.8 (≈ 31.2 µM)	12.5 (≈ 30.4 µM)	12.8 (≈ 31.2 µM)	25 (≈ 60.9 µM)	12.8 (≈ 31.2 µM)	CCCCN(CCCC)Cc1cccc(/C=N\NC(=O)c2ccncc2)c1OCC	15	19	24	21	23	15	100 (≈ 244 µM)	100 (≈ 244 µM)
12.5 (≈ 33.9 µM)	6.4 (≈ 17.4 µM)	6.25 (≈ 17 µM)	3.2 (≈ 8.69 µM)	6.25 (≈ 17 µM)	3.2 (≈ 8.69 µM)	12.5 (≈ 33.9 µM)	6.4 (≈ 17.4 µM)	12.5 (≈ 33.9 µM)	12.8 (≈ 34.7 µM)	12.5 (≈ 33.9 µM)	6.4 (≈ 17.4 µM)	CCOc1c(/C=N\NC(=O)c2ccncc2)cccc1CN1CCOCC1	21	22	31	27	32	21	25 (≈ 67.9 µM)	50 (≈ 136 µM)
12.5 (≈ 32.7 µM)	6.4 (≈ 16.7 µM)	12.5 (≈ 32.7 µM)	6.4 (≈ 16.7 µM)	25 (≈ 65.4 µM)	6.4 (≈ 16.7 µM)	25 (≈ 65.4 µM)	12.8 (≈ 33.5 µM)	12.5 (≈ 32.7 µM)	12.8 (≈ 33.5 µM)	25 (≈ 65.4 µM)	12.8 (≈ 33.5 µM)	CCCN(CCC)Cc1cccc(/C=N\NC(=O)c2ccncc2)c1OCC	15	18	22	21	22	15	50 (≈ 131 µM)	100 (≈ 261 µM)
25 (≈ 76.6 µM)	12.8 (≈ 39.2 µM)	25 (≈ 76.6 µM)	12.8 (≈ 39.2 µM)	25 (≈ 76.6 µM)	12.8 (≈ 39.2 µM)	25 (≈ 76.6 µM)	12.8 (≈ 39.2 µM)	25 (≈ 76.6 µM)	25.6 (≈ 78.4 µM)	50 (≈ 153 µM)	12.8 (≈ 39.2 µM)	CCOc1c(/C=N\NC(=O)c2ccncc2)cccc1CN(C)C	13	15	20	17	21	14	100 (≈ 306 µM)	100 (≈ 306 µM)
12.5 (≈ 32.8 µM)	6.4 (≈ 16.8 µM)	6.25 (≈ 16.4 µM)	3.2 (≈ 8.39 µM)	6.25 (≈ 16.4 µM)	3.2 (≈ 8.39 µM)	12.5 (≈ 32.8 µM)	6.4 (≈ 16.8 µM)	12.5 (≈ 32.8 µM)	12.8 (≈ 33.6 µM)	12.5 (≈ 32.8 µM)	6.4 (≈ 16.8 µM)	CCOc1c(/C=N\NC(=O)c2ccncc2)cccc1CN1CCN(C)CC1	22	22	32	26	33	20	25 (≈ 65.5 µM)	50 (≈ 131 µM)
